Drawing on patent US20250136576A1, “Heterocyclic Compounds and Uses Thereof” (ACEA Therapeutics, Inc., priority 2021, published 2025), this text covers IC50 for 25 compounds.

SMILES strings stand for the structures. Read-outs that look alike come from different tables or passages of the source.

The test system of the test is KM12-luc cells. The experiment in a line: Cell proliferation and growth inhibition assay (CCK-8) in KM12-luc. To be noted: read-out: NTRK IC50 in KM12-luc. It counts as cell-based. As to the method:
MV-4-11 and H1975 cells were obtained from the American Type Culture Collection and KM12-luc cells were obtained from JCRB Cell Bank. All cell lines were maintained at 37° C. with 5% C02, in media supplemented with 10% fetal bovine serum and penicillin (100 units/mL) and streptomycin (100 μg/mL). MV-4-11 cells were maintained in Iscove's Modified Dubecco's Medium, H1975 cells were cultured with RPMI 1640 media, and KM12-luc cells were maintained in Dulbecco's Modification of Eagle's Medium. CCK-8 reagent was obtained from Yeasen. Cell proliferation was assessed by CCK-8 assay (Yeasen) per the manufacturer's instructions. […] Cell viability was assayed by incubating the cells with CCK-8 reagent for 1-4 hrs. Absorbance was measured at OD450 using the Beckman DTX880. The data was calculated using GraphPad Prism version 6.01. The IC50 values were fitted using a non-linear regression model with a sigmoidal dose response.

The mark [1] stands for this setting: KM12-Luc, 72 h, KM12-luc cells, treated with test compounds for 72 hrs, CCK-8 viability.
Where [2] appears, read: KM12-luc cells, treated with test compounds for 72 hrs, CCK-8 viability.

By IC50 is commonly meant the concentration needed to halve the response being measured. Consider `C=CC(=O)Nc1cc(Nc2nc(-c3cn(C)c4ccccc34)c3cc[nH]c3n2)ccc1N(CC)CCN(C)C` [Compound 212a, N-(2-((2-(dimethylamino)ethyl)(ethyl)amino)-5-((4-(1-methyl-1H-indol-3-yl)-7H-pyrrolo[2,3-d]pyrimidin-2-yl)amino)phenyl)acrylamide], for which, under setting [1], the IC50 amounted to 62.7 nM. For the compound `CCN(CCN(C)C)c1ccc(Nc2nc(-c3cn(C)c4ccccc34)c3cc[nH]c3n2)cc1NC(C)=O` [Compound 212c, N-(2-((2-(dimethylamino)ethyl)(ethyl)amino)-5-((4-(1-methyl-1H-indol-3-yl)-7H-pyrrolo[2,3-d]pyrimidin-2-yl)amino)phenyl)acetamide], the IC50 (KM12-Luc, 72 h) amounted to 43.2 nM. Consider `CCN(CCN(C)C)c1ccc(Nc2nc(-c3cn(C)c4ccccc34)c3cc[nH]c3n2)cc1NC(=O)C(C)C` [Compound 212d, N-(2-((2-(dimethylamino)ethyl)(ethyl)amino)-5-((4-(1-methyl-1H-indol-3-yl)-7H-pyrrolo[2,3-d]pyrimidin-2-yl)amino)phenyl)isobutyramide], for which the IC50 under setting [1] was 93.1 nM. With `CCN(CCN(C)C)c1ccc(Nc2nc(-c3cn(C)c4ccccc34)c3cc[nH]c3n2)cc1NCCF` [Compound 212e, N^1-(2-(dimethylamino)ethyl)-N^1-ethyl-N^2-(2-fluoroethyl)-N^4-(4-(1-methyl-1H-indol-3-yl)-7H-pyrrolo[2,3-d]pyrimidin-2-yl)benzene-1,2,4-triamine], under setting [1], the IC50 was 3360 nM. Consider `CCNc1cc(Nc2nc(-c3cn(C)c4ccccc34)c3cc[nH]c3n2)ccc1N(CC)CCN(C)C` [Compound 212f, N^1-(2-(dimethylamino)ethyl)-N^1,N^2-diethyl-N^4-(4-(1-methyl-1H-indol-3-yl)-7H-pyrrolo[2,3-d]pyrimidin-2-yl)benzene-1,2,4-triamine], for which, for the setting “KM12-Luc, 72 h”, the IC50 worked out at 546 nM. On to `CC(=O)Nc1cc(Nc2nc(-c3c[nH]c4cccc(F)c34)c3cc[nH]c3n2)ccc1N(C)CCN(C)C` [Compound 216, N-(2-((2-(dimethylamino)ethyl)(methyl)amino)-5-((4-(4-fluoro-1H-indol-3-yl)-7H-pyrrolo[2,3-d]pyrimidin-2-yl)amino)phenyl)acetamide], for which the half-inhibitory concentration (IC50) under setting [1] came out at 49.7 nM. Take `CC(=O)Nc1cc(Nc2nc(-c3cn(C)c4cccc(F)c34)c3cc[nH]c3n2)ccc1N(C)CCN(C)C` [Compound 218, N-(2-((2-(dimethylamino)ethyl)(methyl)amino)-5-((4-(4-fluoro-1-methyl-1H-indol-3-yl)-7H-pyrrolo[2,3-d]pyrimidin-2-yl)amino)phenyl)acetamide]: the IC50 under setting [1] was found to be 103 nM. As for `CCN(CCN(C)C)c1cc(F)c(Nc2nc(-c3cn(C)c4cccc(F)c34)c3cc[nH]c3n2)cc1NC(C)=O` [Compound 222, N-(2-((2-(dimethylamino)ethyl)(ethyl)amino)-4-fluoro-5-((4-(4-fluoro-1-methyl-1H-indol-3-yl)-7H-pyrrolo[2,3-d]pyrimidin-2-yl)amino)phenyl)acetamide], under setting [1], the IC50 stood at 1440 nM.

In the case of `CC(=O)Nc1cc(Nc2nc(-c3cn(C)c4ccc(F)cc34)c3cc[nH]c3n2)ccc1N(C)CCN(C)C` [Compound 227a, N-(2-((2-(dimethylamino)ethyl)(methyl)amino)-5-((4-(5-fluoro-1-methyl-1H-indol-3-yl)-7H-pyrrolo[2,3-d]pyrimidin-2-yl)amino)phenyl)acetamide], for the setting “KM12-Luc, 72 h”, the IC50 was 578 nM. The same measure, in the same setting: under `CCNc1cc(Nc2nc(-c3cn(C)c4ccc(F)cc34)c3cc[nH]c3n2)ccc1N(C)CCN(C)C` [Compound 227b, N^1-(2-(dimethylamino)ethyl)-N^2-ethyl-N^4-(4-(5-fluoro-1-methyl-1H-indol-3-yl)-7H-pyrrolo[2,3-d]pyrimidin-2-yl)-N^1-methylbenzene-1,2,4-triamine] stands 672 nM; under `CCN(CCN(C)C)c1ccc(Nc2nc(-c3cn(C)c4ccc(F)cc34)c3cc[nH]c3n2)cc1NC(C)=O` [Compound 227c, N-(2-((2-(dimethylamino)ethyl)(ethyl)amino)-5-((4-(5-fluoro-1-methyl-1H-indol-3-yl)-7H-pyrrolo[2,3-d]pyrimidin-2-yl)amino)phenyl)acetamide], 436 nM; under `CCNc1cc(Nc2nc(-c3cn(C)c4ccc(F)cc34)c3cc[nH]c3n2)ccc1N(CC)CCN(C)C` [Compound 227d, N^1-(2-(dimethylamino)ethyl)-N^1,N^2-diethyl-N^4-(4-(5-fluoro-1-methyl-1H-indol-3-yl)-7H-pyrrolo[2,3-d]pyrimidin-2-yl)benzene-1,2,4-triamine], 2010 nM. With `CC(=O)Nc1cc(Nc2nc(-c3cn(C)c4cc(F)ccc34)c3cc[nH]c3n2)ccc1N(C)CCN(C)C` [Compound 232a, N-(2-((2-(dimethylamino)ethyl)(methyl)amino)-5-((4-(6-fluoro-1-methyl-1H-indol-3-yl)-7H-pyrrolo[2,3-d]pyrimidin-2-yl)amino)phenyl)acetamide], for the setting “KM12-Luc, 72 h”, the IC50 is 85.5 nM. Same read-out and setting: in the case of `CCNc1cc(Nc2nc(-c3cn(C)c4cc(F)ccc34)c3cc[nH]c3n2)ccc1N(C)CCN(C)C` [Compound 232b, N^1-(2-(dimethylamino)ethyl)-N^2-ethyl-N^4-(4-(6-fluoro-1-methyl-1H-indol-3-yl)-7H-pyrrolo[2,3-d]pyrimidin-2-yl)-N^1-methylbenzene-1,2,4-triamine] it was 492 nM.

For the compound `CC(=O)Nc1cc(Nc2nc(-c3cn(C)c4cc(F)c(F)cc34)c3cc[nH]c3n2)ccc1N(C)CCN(C)C` [Compound 237, N-(5-((4-(5,6-difluoro-1-methyl-1H-indol-3-yl)-7H-pyrrolo[2,3-d]pyrimidin-2-yl)amino)-2-((2-(dimethylamino)ethyl)(methyl)amino)phenyl)acetamide], under setting [1], the IC50 was determined as 537 nM.

With `Cc1ccc2[nH]cc(-c3nc(Nc4ccc(N(C)CCN(C)C)c(N(C)C)c4)nc4[nH]ccc34)c2c1` [Compound 239, N^1-(2-(dimethylamino)ethyl)-N^1,N^2,N^2-trimethyl-N^4-(4-(5-methyl-1H-indol-3-yl)-7H-pyrrolo[2,3-d]pyrimidin-2-yl)benzene-1,2,4-triamine], the IC50 under setting [1] came out at 518 nM. Still for that read-out and setting: under `CC(=O)Nc1cc(Nc2nc(-c3cn(C)c4ccc(C)cc34)c3cc[nH]c3n2)ccc1N(C)CCN(C)C` [Compound 244, N-(5-((4-(1,5-dimethyl-1H-indol-3-yl)-7H-pyrrolo[2,3-d]pyrimidin-2-yl)amino)-2-((2-(dimethylamino)ethyl)(methyl)amino)phenyl)acetamide] stands 348 nM; under `CCn1cc(-c2nc(Nc3ccc(N(C)CCN(C)C)c(NC(C)=O)c3)nc3[nH]ccc23)c2cc(F)ccc21` [Compound 246, N-(2-((2-(dimethylamino)ethyl)(methyl)amino)-5-((4-(1-ethyl-5-fluoro-1H-indol-3-yl)-7H-pyrrolo[2,3-d]pyrimidin-2-yl)amino)phenyl)acetamide], 69.9 nM; under `CC(=O)Nc1cc(Nc2nc(-c3cn(C)c4ccccc34)c3c(F)c[nH]c3n2)ccc1N(C)CCN(C)C` [Compound 253, N-(2-((2-(dimethylamino)ethyl)(methyl)amino)-5-((5-fluoro-4-(1-methyl-1H-indol-3-yl)-7H-pyrrolo[2,3-d]pyrimidin-2-yl)amino)phenyl)acetamide], 97.5 nM. Regarding `CC(=O)Nc1cc(Nc2nc(-c3cn(C)nc3C)c3cc[nH]c3n2)ccc1N(C)CCN(C)C` [Compound 255a, N-(5-(4-(1,3-dimethyl-1H-pyrazol-4-yl)-7H-pyrrolo[2,3-d]pyrimidin-2-ylamino)-2-((2-(dimethylamino)ethyl)(methyl)amino)phenyl)acetamide], the half-inhibitory concentration (IC50) under setting [2] stood at 246 nM. Same read-out and setting: under `CC(=O)Nc1cc(Nc2nc(-c3cn(C)nc3C)c3cc[nH]c3n2)ccc1N(C)CCN(C)C` [Compound 255b, N-(5-(4-(1,3-dimethyl-1H-pyrazol-4-yl)-7H-pyrrolo[2,3-d]pyrimidin-2-ylamino)-2-((2-(dimethylamino)ethyl)(methyl)amino)phenyl)acetamide] stands more than 10000 nM.

For the compound `CC(=O)Nc1cc(Nc2nc(-c3cn(C)c4ccccc34)c3occc3n2)ccc1N(C)CCN(C)C` [Compound 256a, N-(2-((2-(dimethylamino)ethyl)(methyl)amino)-5-((4-(1-methyl-1H-indol-3-yl)furo[3,2-d]pyrimidin-2-yl)amino)phenyl)acetamide], the concentration for half-maximal inhibition (IC50) under setting [1] worked out at 447 nM. On the same count and under the same terms, in the case of `CC(=O)Nc1cc(Nc2nc(-c3cn(C)c4ccccc34)c3occc3n2)cc(F)c1N(C)CCN(C)C` [Compound 256b, N-(2-((2-(dimethylamino)ethyl) (methyl)amino)-3-fluoro-5-((4-(1-methyl-1H-indol-3-yl)furo[3,2-d]pyrimidin-2-yl)amino)phenyl) acetamide] it was 748 nM; in that of `CCN(CCN(C)C)c1ccc(Nc2nc(-c3cn(C)c4ccccc34)c3occc3n2)cc1NC(C)=O` [Compound 256c, N-(2-((2-(dimethylamino)ethyl)(ethyl)amino)-5-((4-(1-methyl-1H-indol-3-yl)furo[3,2-d]pyrimidin-2-yl)amino)phenyl)acetamide], 587 nM. Regarding `CCN(CCN(C)C)c1c(F)cc(Nc2nc(-c3cn(C)c4ccccc34)c3occc3n2)cc1NC(C)=O` [Compound 256d, N-(2-((2-(dimethylamino)ethyl)(ethyl)amino)-3-fluoro-5-((4-(1-methyl-1H-indol-3-yl)furo[3,2-d]pyrimidin-2-yl)amino)phenyl)acetamide], the IC50 under setting [1] is 1000 nM.
